Laboratory results as given in US11535838B2, “Serine protease molecules and therapies” (Research Development Foundation, priority 2012, dated 2022).
pIC50: −log10 of the molar value.

Columns and labels:
SKOV3 [1] = assay: Cytotoxic effects of GrB/ZME fusion constructs; format: cell-based; conditions: SKOV3, non-specific control
Description: (§1) GrB-ZME(VL-VH) fusion proteins were constructed as indicated above using different linkers between the GrB and ZME sequences. The construct SL used the G4S linker; LL was four repeats of the HL (EAAAK (SEQ ID NO: 14)) linker and X was a G4S+218 linker.
(§2) Two glycosylation sites were identified within the GrB molecule (d1 and d2) and modified the GrB/scFvMEL fusion construct as detailed above and as shown in FIG. 4 (d1 indicates N51S; d2 indicates N84A). Each glycosylation site was modified and then a molecule containing both modifications was generated. The individual modifications had little effect on in vitro GrB enzymatic activity (see, e.g., FIG. 4). […] There was little impact on the non-specific cell line (SKOV3).
(§3) Three expression constructs were developed and tested. (LL) encoded GrB-HL-HL-HL-HL-ZME(VL-VH), plasmid designation pSECTag-GrB-HL4-ZME; (E) encoded GrB HL HL HL HL T1 ZME(VL-VH), plasmid designation pSECTag-GrB-HL4-T1-ZME; and (J) (LL) encoded GrB (d1, A, N) HL HL HL HL ZME(VL-VH), plasmid designation pSECTag-GrB-HL4-ZME. The constructs were expressed and tested. […] Incorporation of d1 modified GrB into the construct further increased the specific cytotoxicity of the construct with no impact on non-specific cytotoxicity.
(§4) These constructs were expressed and tested.
(§5) These constructs were expressed and tested. […] Incorporation of the “26” molecule increased the toxicity to target and non-target cells alike.

A375-M [2] = assay: Cytotoxic effects of GrB/ZME fusion constructs; format: cell-based; conditions: specifically targeted by ZME
Description: as §1, §2, §3, §4, §5

AAB-527 [3] = assay: Cytotoxic effects of GrB/ZME fusion constructs; format: cell-based; conditions: AAB-527, specifically targeted by ZME
Description: as §1, §2, §3, §4, §5

MDA MB453 = assay: In vitro cytotoxic effects of GrB-based fusions, crystal violet; format: cell-based, human; conditions: Table 11, MDA MB453, 72 h exposure
SKOV3 [4] = assay: Cytotoxic effects of GrB/4D5 fusion constructs with and without a translocation domain; format: cell-based; conditions: SKOV3, Her2 Exp. High
Description: (§6) Further GrB expression constructs were developed and tested.
as §4

MDA-MB-453 = assay: as above; format: cell-based; conditions: MDA-MB-453, Her2 Exp. High
Description: as §6, §4

NCI-N87 [5] = assay: as above; format: cell-based; conditions: NCI-N87, Her2 Exp. High
Description: as §6, §4

Calu-3 = assay: as above; format: cell-based; conditions: Calu-3, Her2 Exp. High
Description: as §6, §4

SKBR3 [6] = assay: as above; format: cell-based; conditions: SKBR3, Her2 Exp. High
Description: as §6, §4

Me-180 = assay: as above; format: cell-based; conditions: Me-180, Her2 Exp. none
Description: as §6, §4

Me180 = assay: In vitro cytotoxic effects of GrB-based fusions, crystal violet; format: cell-based, human; conditions: Table 11, Me180, 72 h exposure
MDA MB435 = assay: as above; format: cell-based; conditions: Table 11, MDA MB435, 72 h exposure
HeyA8-MDR = assay: Cytotoxic effects of GrB versus GrB-TWEAK; format: cell-based
Description: (§7) Further GrB expression constructs were developed and tested. (GrB) encoded GrB, plasmid designation pSECTag-GrB. […] These constructs were expressed and tested.

SB2 [7] = assay: Cytotoxic effects of GrB versus GrB-TWEAK; format: cell-based
Description: as §7

MCF-7 [8] = assay: Cytotoxic effects of GrB versus GrB-TWEAK; format: cell-based
Description: as §7

HeyA8 = assay: Cytotoxic effects of GrB versus GrB-TWEAK; format: cell-based
Description: as §7

HT-1080 = assay: Cytotoxic effects of GrB versus GrB-TWEAK; format: cell-based
Description: as §7

A375-M [9] = assay: Cytotoxic effects of GrB versus GrB-TWEAK; format: cell-based
Description: as §7

A2780 = assay: Cytotoxic effects of GrB versus GrB-TWEAK; format: cell-based
Description: as §7

MDA-MB231 = assay: Cytotoxic effects of GrB versus GrB-TWEAK; format: cell-based
Description: as §7

HEY = assay: Cytotoxic effects of GrB versus GrB-TWEAK; format: cell-based
Description: as §7

MDA-MB435 = assay: Cytotoxic effects of GrB versus GrB-TWEAK; format: cell-based
Description: as §7

SK-Mel-1 = assay: Cytotoxic effects of GrB versus GrB-TWEAK; format: cell-based
Description: as §7

A172 = assay: Cytotoxic effects of GrB versus GrB-TWEAK; format: cell-based
Description: as §7

U87MG = assay: Cytotoxic effects of GrB versus GrB-TWEAK; format: cell-based
Description: as §7

MDA-MB435/MDR1 = assay: Cytotoxic effects of GrB versus GrB-TWEAK; format: cell-based
Description: as §7

OC-316 = assay: Cytotoxic effects of GrB versus GrB-TWEAK; format: cell-based
Description: as §7

Jurkat = assay: Cytotoxic effects of GrB versus GrB-TWEAK; format: cell-based
Description: as §7

BxPC-3 = assay: Cytotoxic effects of GrB versus GrB-TWEAK; format: cell-based
Description: as §7

T-24 = assay: Cytotoxic effects of GrB versus GrB-TWEAK; format: cell-based
Description: as §7

AAB-527 [10] = assay: Cytotoxic effects of GrB versus GrB-TWEAK; format: cell-based
Description: as §7

ES-2 = assay: Cytotoxic effects of GrB versus GrB-TWEAK; format: cell-based
Description: as §7

SKBR3 [11] = assay: Cytotoxic effects of GrB versus GrB-TWEAK; format: cell-based
Description: as §7

SK-Mel-5 = assay: Cytotoxic effects of GrB versus GrB-TWEAK; format: cell-based
Description: as §7

SK-Mel-28 = assay: Cytotoxic effects of GrB versus GrB-TWEAK; format: cell-based
Description: as §7

HT-29 [12] = assay: Cytotoxic effects of GrB versus GrB-TWEAK; format: cell-based
Description: as §7

WM35 [13] = assay: Cytotoxic effects of GrB versus GrB-TWEAK; format: cell-based
Description: as §7

H358 = assay: Cytotoxicity of GrB-Fc-IT4 constructs; format: cell-based
Description: (§8) As an initial test of this arrangement a construct was produced comprising GrB-Fc-IT4 (scFv). Specifically, the IT4 scFv targets the product of the tumor necrosis factor receptor superfamily, member 12A (TNFRSF12A) gene and was previously described in Zhou et al., 2011, which is incorporated herein by reference. The sequence of the fusion protein produced by the construct is provided as SEQ ID NO: 45. The constructs was expressed and purified as detailed supra and tested for activity against a panel of cells lines (using GrB alone a control).

Capan-1 = assay: Cytotoxicity of GrB-Fc-IT4 constructs; format: cell-based
Description: as §8

L3.6p1 = assay: Cytotoxicity of GrB-Fc-IT4 constructs; format: cell-based
Description: as §8

SK-MEF-28 = assay: Cytotoxicity of GrB-Fc-IT4 constructs; format: cell-based
Description: as §8

H3255 = assay: Cytotoxicity of GrB-Fc-IT4 constructs; format: cell-based
Description: as §8

MDA-MB-435 = assay: Cytotoxicity of GrB-Fc-IT4 constructs; format: cell-based
Description: as §8

MEF 3.5 −/− = assay: Cytotoxicity of GrB-Fc-IT4 constructs; format: cell-based
Description: as §8

SB2 [14] = assay: Cytotoxicity of GrB-Fc-IT4 constructs; format: cell-based
Description: as §8

MCF-7 [15] = assay: Cytotoxicity of GrB-Fc-IT4 constructs; format: cell-based
Description: as §8

Capan-2 = assay: Cytotoxicity of GrB-Fc-IT4 constructs; format: cell-based
Description: as §8

A549 = assay: Cytotoxicity of GrB-Fc-IT4 constructs; format: cell-based
Description: as §8

HCC827 = assay: Cytotoxicity of GrB-Fc-IT4 constructs; format: cell-based
Description: as §8

MDA-MD-231-Luc = assay: Cytotoxicity of GrB-Fc-IT4 constructs; format: cell-based
Description: as §8

H1437 = assay: Cytotoxicity of GrB-Fc-IT4 constructs; format: cell-based
Description: as §8

WM35P2N1 = assay: Cytotoxicity of GrB-Fc-IT4 constructs; format: cell-based
Description: as §8

H2073 = assay: Cytotoxicity of GrB-Fc-IT4 constructs; format: cell-based
Description: as §8

AsPc-1 = assay: Cytotoxicity of GrB-Fc-IT4 constructs; format: cell-based
Description: as §8

H1975 = assay: Cytotoxicity of GrB-Fc-IT4 constructs; format: cell-based
Description: as §8

HCC2279 = assay: Cytotoxicity of GrB-Fc-IT4 constructs; format: cell-based
Description: as §8

MDA-MB-231 = assay: Cytotoxicity of GrB-Fc-IT4 constructs; format: cell-based
Description: as §8

A375 = assay: Cytotoxicity of GrB-Fc-IT4 constructs; format: cell-based
Description: as §8

H520 = assay: Cytotoxicity of GrB-Fc-IT4 constructs; format: cell-based
Description: as §8

HT-29 [16] = assay: Cytotoxicity of GrB-Fc-IT4 constructs; format: cell-based
Description: as §8

WM35 [17] = assay: Cytotoxicity of GrB-Fc-IT4 constructs; format: cell-based
Description: as §8

Calu3 = assay: In vitro cytotoxic effects of GrB-based fusions, crystal violet; format: cell-based; conditions: Table 11, Calu3, 72 h exposure
NCI-N87 [18] = assay: as above; format: cell-based; conditions: Table 11, NCI-N87, 72 h exposure
eB-1 = assay: as above; format: cell-based, human; conditions: Table 11, eB-1, 72 h exposure
[19] = Enzymatic assay of GrB component, continuous colorimetric assay; format: biochemical; conditions: substrate BAADT, 25° C., native GrB as standard
Method: The enzymatic activity of the GrB component was determined in a continuous colorimetric assay using N-α-t-butoxycarbonyl-L-alanyl-L-alanyl-L-aspartyl-thiobenzylester (BAADT) as a specific substrate (Liu et al., 2003). Assays consisted of commercial human GrB (Enzyme Systems Products, Livermore, Calif.) or GrB-based fusion proteins in BAADT at 25° C. […] The specific activity of GrB-based fusion proteins was calculated using native GrB as the standard.

GrB: recombinant Granzyme B without targeting moiety, plasmid pSECTag-GrB, used as control
pIC50 (SKOV3 [1]): < 5.70
pIC50 (A375-M [2]): < 5.70
pIC50 (AAB-527 [3]): < 5.70
pIC50 (MDA MB453): < 5.82
pIC50 (SKOV3 [4]): < 6.00
pIC50 (MDA-MB-453): < 6.00
pIC50 (NCI-N87 [5]): < 6.00
pIC50 (Calu-3): < 6.00
pIC50 (SKBR3 [6]): < 6.00
pIC50 (Me-180): < 6.00
pIC50 (Me180): < 5.82
pIC50 (MDA MB435): < 5.82
pIC50 (HeyA8-MDR): < 6.15
pIC50 (SB2 [7]): < 5.72
pIC50 (MCF-7 [8]): < 5.72
pIC50 (HeyA8): 6.08
pIC50 (HT-1080): 5.89
pIC50 (A375-M [9]): < 5.72
pIC50 (A2780): < 5.89
pIC50 (MDA-MB231): < 5.72
pIC50 (HEY): 5.99
pIC50 (MDA-MB435): 6.35
pIC50 (SK-Mel-1): < 5.72
pIC50 (A172): 5.72
pIC50 (U87MG): 6.08
pIC50 (MDA-MB435/MDR1): 6.35
pIC50 (OC-316): < 5.72
pIC50 (Jurkat): < 6.15
pIC50 (BxPC-3): < 5.72
pIC50 (T-24): 5.58
pIC50 (AAB-527 [10]): 5.98
pIC50 (ES-2): 5.84
pIC50 (SKBR3 [11]): 6.18
pIC50 (SK-Mel-5): 5.52
pIC50 (SK-Mel-28): < 5.72
pIC50 (HT-29 [12]): 6.10
pIC50 (WM35 [13]): < 5.72
pIC50 (H358): < 5.49
pIC50 (Capan-1): 5.63
pIC50 (L3.6p1): 5.92
pIC50 (SK-MEF-28): < 5.72
pIC50 (H3255): 5.63
pIC50 (MDA-MB-435): 6.35
pIC50 (MEF 3.5 −/−): < 5.49
pIC50 (SB2 [14]): < 5.72
pIC50 (MCF-7 [15]): < 5.72
pIC50 (Capan-2): < 5.49
pIC50 (A549): 6.22
pIC50 (HCC827): 5.85
pIC50 (MDA-MD-231-Luc): 5.45
pIC50 (H1437): < 5.49
pIC50 (WM35P2N1): 5.81
pIC50 (H2073): < 5.49
pIC50 (AsPc-1): 5.89
pIC50 (H1975): < 5.49
pIC50 (HCC2279): 6.28
pIC50 (MDA-MB-231): < 5.71
pIC50 (A375): < 5.72
pIC50 (H520): 6.59
pIC50 (HT-29 [16]): < 5.49
pIC50 (WM35 [17]): < 5.72
pIC50 (Calu3): < 5.82
pIC50 (NCI-N87 [18]): < 5.82
pIC50 (eB-1): < 5.82

native GrB: commercial human GrB (Enzyme Systems Products) used as the standard
GrB enzymatic activity [19]: 1.19×10^5 U/μmoL
